# Experimental data published in PMC9694334, “Synthesis and Biological Evaluation of a Fused Structure of Indolizine and Pyrrolo[1,2-c]pyrimidine: Identification of Its Potent Anticancer Activity against Liver Cancer Cells” (Pharmaceuticals, 2022).
# Columns and labels:
# [1] = test system: Huh7 cells; assay: Cell viability assay (MTS) in Huh7 cells; format: cell-based; details: Homo sapiens, Huh-7, mean, n = 5, 72 h for 5r (Figure 2)
# Protocol: (§1) HepG2, Huh7, H1299, HT29, AGS and A549 cells were purchased from the Korean Cell Line Bank (Seoul, Korea) and HaCaT cells were obtained from Prof. Sohee Kwon (Yonsei University, Korea). Liver cancer cells (HepG2), human keratinocyte cells (HaCaT), and lung cancer cells (A549) were grown in DMEM high-glucose medium, liver cancer cells (Huh7) and non-small cell lung cancer cells (H1299) were grown in RPMI 1640, and gastric cancer cells (AGS) were grown in Coon’s modified F12 medium. All media were supplemented with 10% FBS, 100 Units/mL penicillin, and 100 μg/mL streptomycin. All cells were incubated at 37 °C, 5% CO2 and 95% humidity.
# (§2) Cell viability assay was conducted using Cell Titer 96® AQueous One Solution Cell proliferation Assay kit (Promega, Madison, WI, USA). Five cancer cells and HaCaT cells were plated in 96-well microplates with growth medium for 24 h. When cell confluency reached ~30%, cells were treated with DMSO (vehicle) and test compounds. The medium and test compounds were replaced every 24 h. To measure cell viability, the cells were incubated with MTS solution for 1 h. The absorbance was measured by using Infinite M200 microplate reader (Tecan, Männedorf, Switzerland) at 490 nm.
# (§3) Figure 2 Effect of 5r on cell viability in HepG2, Huh7, AGS, H1299, A549, HaCaT, NIH3T3, and HEK293T cells. (A–H) HepG2, Huh7, AGS, H1299, A549, HaCaT, NIH3T3, and HEK293T cells were cultured with 5r at the indicated concentrations for 72 h, and medium was replaced every 24 h with freshly added 5r. Cell viability was measured by MTS analysis (mean ± S.D., n = 5). * p < 0.05, ** p < 0.01, *** p < 0.001.
# [2] = test system: HepG2 cells; assay: Cell viability assay (MTS) in HepG2 cells; format: cell-based; details: mean; for IC50: Homo sapiens, MTS, n = 5, 72 h for 5r (Figure 2)
# Protocol: as §1, §2, §3
# [3] = test system: HaCaT cells; assay: Cell viability assay (MTS) in HaCaT cells; format: cell-based, human; details: Homo sapiens, mean, n = 5
# Protocol: as §1, §2, §3
# [4] = test system: AGS cells; assay: Cell viability assay (MTS) in AGS cells; format: cell-based; details: 10 μM, mean, n = 3
# Protocol: as §1, §2, §3
# [5] = test system: H1299 cells; assay: Cell viability assay (MTS) in H1299 cells; format: cell-based; details: 10 μM, mean, n = 3
# Protocol: as §1, §2, §3
# [6] = test system: A549 cells; assay: Cell viability assay (MTS) in A549 cells; format: cell-based; details: 10 μM, mean, n = 3
# Protocol: as §1, §2, §3
# [7] = test system: HT29 cells; assay: Cell viability assay (MTS) in HT29 cells; format: cell-based; details: mean, n = 3
# Protocol: as §1, §2
# [8] = test system: caspase-3; assay: Caspase-3 activity assay in Huh7 cells; format: cell-based; details: 20 μM Ac-DEVD-CHO, Figure 4D
# Protocol: (§4) HepG2 and Huh7 cells were plated in 96-black-well plate to about 40% confluence, and then 5r was treated for 24 h. To assess activity of caspase-3, the growth medium was changed with 100 μL of PBS containing 1 μM caspase-3 substrate, NucView 488, and incubated at room temperature. After 20 min, 1 μM Hoechst 33342 was treated to stain the cells. Activity of caspase-3 was suppressed by Ac-DEVD-CHO, a selective caspase-3 inhibitor. FLUOstar Omega microplate reader (BMG Labtech, Ortenberg, Germany) was used to assess the fluorescence of NucView 488 and Hoechst, and Lionheart FX Automated Microscope (BioTek, Winooski, VT, USA) was used to acquire the fluorescence microscopy images.
# (§5) Figure 4 Effect of 5r on activity of caspase-3 and cleavage of PARP in HepG2 and Huh7 cells. (A,B) HepG2 and Huh7 cells were incubated with 3 µM 5r for 24 h and then incubated with 1 µM caspase-3 substrate (green) and 1 µM Hoechst 33,342 (blue) for 20 min before image acquisition. (C,D) Cells were cultured with 5r at the indicated concentrations for 24 h and then 1 μM caspase-3 substrate was treated for 20 min. Caspase-3 was inhibited by 20 μM Ac-DEVD-CHO (mean ± S.D., n = 3). (E,F) Cells were cultured with 5r at the indicated concentrations for 24 h, and expression level of PARP, cleaved-PARP and β-actin were measured by Western blot analysis. […]
# [9] = test system: caspase-3; assay: Caspase-3 activity assay in HepG2 cells; format: cell-based; details: 20 μM Ac-DEVD-CHO, Figure 4C
# Protocol: as §4, §5
# [10] = test system: hepatocellular carcinoma; design: method as in PMID 10951336, PMID 11408798, PMID 11462924, PMID 12115351, PMID 14612894; details: gemcitabine alone; phase 2 clinical trials; cited from earlier work
Compound,IC50 [1],IC50 [2],IC50 [3],other results
"COc1ccc(-c2nc3c(c(C#N)c4ccccn43)c3cccn23)c(O)c1 [Compound 5z, 5-(2-Hydroxy-4-methoxyphenyl)pyrrolo[1′,2′:1,6]pyrimido[5,4-b]indolizine-12-carbonitrile]",0.71 µM,0.64 µM,1.95 µM,–
"N#Cc1c2c3cccn3c(-c3ccccc3F)nc2n2ccccc12 [Compound 5t, 5-(2-Fluorophenyl)pyrrolo[1′,2′:1,6]pyrimido[5,4-b]indolizine-12-carbonitrile]",1.92 µM,1.58 µM,6.78 µM,–
"COc1ccccc1-c1nc2c(c(C#N)c3ccccn32)c2cccn12 [Compound 5p, 5-(2-Methoxyphenyl)pyrrolo[1′,2′:1,6]pyrimido[5,4-b]indolizine-12-carbonitrile]",2.25 µM,3.42 µM,16.2 µM,–
"N#Cc1c2c3[nH]c4ccccc4c3c(-c3cccs3)nc2n2ccccc12 [Compound 10d, 7-(Thiophen-2-yl)-12H-indolizino[2′,3′:5,6]pyrido[4,3-b]indole-13-carbonitrile]",0.6 µM,2.27 µM,0.81 µM,–
"N#Cc1c2c3cccn3c(-c3cccs3)nc2n2ccccc12 [Compound 5n, 5-(Thiophen-2-yl)pyrrolo[1′,2′:1,6]pyrimido[5,4-b]indolizine-12-carbonitrile]",0.75 µM,0.28 µM,13.3 µM,"% Inhibition of Cell Viability at 10 μM AGS [4]: <25%; % Inhibition of Cell Viability at 10 μM H1299 [5]: 70.3%; % Inhibition of Cell Viability at 10 μM A549 [6]: 38.0%; % Inhibition of Cell Viability at 10 μM HT29 [7]: 48.4%; % Inhibition of Cell Viability at 10 μM HepG2 ([2]; 10 μM, n = 3): 98.9%"
Ac-DEVD-CHO [reference compound],–,–,–,Inhibition of 5r-increased caspase-3 activity in Huh7 cells [8]: fully inhibited; Inhibition of 5r-increased caspase-3 activity in HepG2 cells [9]: fully inhibited
"COc1ccc(O)c(-c2nc3c(c(C#N)c4ccccn43)c3cccn23)c1 [Compound 5y, 5-(2-Hydroxy-5-methoxyphenyl)pyrrolo[1′,2′:1,6]pyrimido[5,4-b]indolizine-12-carbonitrile]",0.64 µM,0.79 µM,2.25 µM,–
"N#Cc1c2c3cccn3c(-c3ncc[nH]3)nc2n2ccccc12 [Compound 5x, 5-(1H-Imidazol-2-yl)pyrrolo[1′,2′:1,6]pyrimido[5,4-b]indolizine-12-carbonitrile]",7.85 µM,3.52 µM,24.1 µM,–
"N#Cc1c2c3cccn3c(-c3cccc(Cl)c3)nc2n2ccccc12 [Compound 5v, 5-(3-Chlorophenyl)pyrrolo[1′,2′:1,6]pyrimido[5,4-b]indolizine-12-carbonitrile]",1.33 µM,1.48 µM,15.3 µM,–
Nc1ccn([C@@H]2O[C@H](CO)[C@@H](O)C2(F)F)c(=O)n1 [gemcitabine],–,–,–,Response rate [10]: 0–20%
"N#Cc1c2c3cccn3c(-c3cc(Cl)ccc3O)nc2n2ccccc12 [Compound 5ab, 5-(5-Chloro-2-hydroxyphenyl)pyrrolo[1′,2′:1,6]pyrimido[5,4-b]indolizine-12-carbonitrile]",0.71 µM,0.84 µM,2.3 µM,–
"N#Cc1c2c3cccn3c(-c3cccnc3)nc2n2ccccc12 [Compound 5o, 5-(Pyridin-3-yl)pyrrolo[1′,2′:1,6]pyrimido[5,4-b]indolizine-12-carbonitrile]",1.47 µM,2 µM,3.98 µM,–
"COc1cc(O)c(-c2nc3c(c(C#N)c4ccccn43)c3cccn23)cc1OC [Compound 5aa, 5-(2-Hydroxy-4,5-dimethoxyphenyl)pyrrolo[1′,2′:1,6]pyrimido[5,4-b]indolizine-12-carbonitrile]",0.87 µM,1.17 µM,2.21 µM,–
"N#Cc1c2c3cccn3c(-c3ccccc3Cl)nc2n2ccccc12 [Compound 5u, 5-(2-Chlorophenyl)pyrrolo[1′,2′:1,6]pyrimido[5,4-b]indolizine-12-carbonitrile]",3.95 µM,2.1 µM,11.5 µM,–
"N#Cc1c2c3cccn3c(-c3ccccc3Br)nc2n2ccccc12 [Compound 5w, 5-(2-Bromophenyl)pyrrolo[1′,2′:1,6]pyrimido[5,4-b]indolizine-12-carbonitrile]",2.72 µM,1.75 µM,9.53 µM,–
"N#Cc1c2c3cccn3c(-c3cccc(O)c3)nc2n2ccccc12 [Compound 5s, 5-(3-Hydroxyphenyl)pyrrolo[1′,2′:1,6]pyrimido[5,4-b]indolizine-12-carbonitrile]",4.02 µM,2.94 µM,8.49 µM,–
"COc1cccc(-c2nc3c(c(C#N)c4ccccn43)c3cccn23)c1 [Compound 5q, 5-(3-Methoxyphenyl)pyrrolo[1′,2′:1,6]pyrimido[5,4-b]indolizine-12-carbonitrile]",1.45 µM,1.31 µM,8.3 µM,–
